Like-named read-outs stand apart in the source and are kept apart here. Bounds are passed on as bounds.

Type in all cases: cell-based
Assay [1] addresses T1, GLP-1R (Homo sapiens, UniProt P43220). The experiment in a line: HitHunter cAMP assay (GLP-1R). As to conditions: cAMP; for Emax: read-out: (Emax) GLP-1R. The gist of the method: (§1)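 cAMP accumulation read by luminescent HitHunter immunocompetition after 30 min room-temperature agonist stimulation. Agonists tested as 22-point twofold dilutions, in duplicate, on 10,000 cells/well in HBSS containing 625 μM IBMX, 10 mM HEPES and 0.2% BSA.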
For orientation: Changes in cAMP serve as a functional read-out for many G protein-coupled receptors.

For a further assay, the target named is T2, GIP-R (Homo sapiens, UniProt P48546).
T2 sequence (P48546 22-466): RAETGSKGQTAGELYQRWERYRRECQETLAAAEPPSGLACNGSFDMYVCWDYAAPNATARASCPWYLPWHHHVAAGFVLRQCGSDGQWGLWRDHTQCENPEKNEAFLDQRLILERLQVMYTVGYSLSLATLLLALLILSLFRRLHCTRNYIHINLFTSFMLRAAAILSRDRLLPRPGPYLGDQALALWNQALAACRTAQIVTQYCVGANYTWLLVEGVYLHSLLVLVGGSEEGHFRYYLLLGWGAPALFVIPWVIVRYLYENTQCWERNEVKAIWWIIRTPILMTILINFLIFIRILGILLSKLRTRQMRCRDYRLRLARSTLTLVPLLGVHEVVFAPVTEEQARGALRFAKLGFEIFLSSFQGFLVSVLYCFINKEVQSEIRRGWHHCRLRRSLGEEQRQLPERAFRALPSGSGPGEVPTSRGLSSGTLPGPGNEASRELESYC
The assay is described as follows: HitHunter cAMP assay (GIP-R). As to conditions: cAMP; for Emax: read-out: (Emax) GIP-R. The method, boiled down:
as §1

The target of assay [2] is T1, GLP-1R. The experiment in a line: PathHunter β-arrestin assay. The gist of the method: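 β-Arrestin recruitment measured by PathHunter enzyme-fragment luminescence, read after 3 h dark incubation at room temperature with detection solution. Beforehand, agonist in a 22-point 2-fold series was applied in duplicate for 90 min at 37 °C to 5,000 cells/well in BSA-containing (0.2%) medium.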

Setting [3] is: read-out: (Emax) GIP-R at 1 μM, Table 3.
Where [4] appears, read: Table 3, read-out: EC50 GLP-1R/nM.
The mark [5] stands for this setting: Table 3A, read-out: EC50 GLP-1R/nM.
The mark [6] stands for this setting: Table 3, read-out: EC50 GIP-R/nM.
Setting [7] is: Table 3A, read-out: EC50 GIP-R/nM.
Setting [8] is: PathHunter β-arrestin assay, read-out: β-arrestin activity EC50.

T1 sequence (P43220 24-463): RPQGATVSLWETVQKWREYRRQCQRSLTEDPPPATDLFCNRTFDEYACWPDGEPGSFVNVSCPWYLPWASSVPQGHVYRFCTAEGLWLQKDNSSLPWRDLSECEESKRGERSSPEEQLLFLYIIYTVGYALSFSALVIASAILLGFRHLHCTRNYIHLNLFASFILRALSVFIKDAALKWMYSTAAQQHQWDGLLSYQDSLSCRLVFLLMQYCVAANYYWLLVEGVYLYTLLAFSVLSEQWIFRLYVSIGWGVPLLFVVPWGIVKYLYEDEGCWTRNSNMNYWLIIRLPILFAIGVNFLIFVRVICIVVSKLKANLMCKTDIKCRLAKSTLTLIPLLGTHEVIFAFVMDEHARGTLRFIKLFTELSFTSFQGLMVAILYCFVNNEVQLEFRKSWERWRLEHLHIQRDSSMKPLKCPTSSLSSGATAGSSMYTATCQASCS

The Emax is the size of the effect at its maximum, as opposed to the concentration needed. Turning to `CC[C@H](C)[C@H](NC(=O)[C@H](CO)NC(=O)[C@H](Cc1ccc(O)cc1)NC(=O)[C@H](CC(=O)O)NC(=O)[C@H](CO)NC(=O)[C@@H](NC(=O)[C@H](Cc1ccccc1)NC(=O)[C@@H](NC(=O)CNC(=O)[C@H](CCC(=O)O)NC(=O)C12CC(C(=O)NCCN3C(=O)CSC3=O)(C1)C2)[C@@H](C)O)[C@@H](C)O)C(=O)N[C@@H](Cc1ccc(O)cc1)C(=O)N[C@@H](CC(C)C)C(=O)N[C@@H](CC(=O)O)C(=O)N[C@@H](CCCCN)C(=O)N[C@@H](CCC(N)=O)C(=O)N[C@@H](C)C(=O)N[C@@H](C)C(=O)NC(C)(C)C(=O)N[C@@H](CCC(=O)O)C(=O)N[C@@H](Cc1ccccc1)C(=O)N[C@H](C(=O)N[C@@H](CC(N)=O)C(=O)N[C@@H](Cc1c[nH]c2ccccc12)C(=O)N[C@@H](CC(C)C)C(=O)N[C@@H](CC(C)C)C(=O)N[C@@H](C)C(=O)NCC(=O)NCC(=O)N1CCC[C@H]1C(=O)N[C@@H](CO)C(=O)N[C@@H](CO)C(=O)NCC(=O)N[C@@H](C)C(=O)N1CCC[C@H]1C(=O)N1CCC[C@H]1C(=O)N1CCC[C@H]1C(=O)N[C@@H](CO)C(=O)N[C@@H](CCCCN)C(N)=O)C(C)C` [Compound 179], the EC50 is 0.1 to 1 nM on GLP-1R [1] (EC50 GLP-1R/nM, Table 3); 0.1 to 1 nM at GLP-1R [1] (EC50 GLP-1R/nM, Table 3A); above 1000 nM on GIP-R (EC50 GIP-R/nM, Table 3); above 1000 nM at GIP-R (read-out: EC50 GIP-R/nM, Table 3A); 10 to 1000 nM at GLP-1R [2]. In addition, the Emax on GLP-1R [1] (Table 3) and on GLP-1R [1] (Table 3A) was 103% each time. For the same molecule, at GIP-R (setting [3]), the maximal effect (Emax) at 1 µM came out at 2%.

Consider `CC[C@H](C)[C@H](NC(=O)[C@H](CO)NC(=O)[C@H](Cc1ccc(O)cc1)NC(=O)[C@H](CC(=O)O)NC(=O)[C@H](CO)NC(=O)[C@@H](NC(=O)[C@H](Cc1ccccc1)NC(=O)[C@@H](NC(=O)CNC(=O)[C@H](CCC(=O)O)NC(=O)CSCC(=O)NCCCN1C(=O)c2ccccc2C1=O)[C@@H](C)O)[C@@H](C)O)C(=O)N[C@@H](Cc1ccc(O)cc1)C(=O)N[C@@H](CC(C)C)C(=O)N[C@@H](CC(=O)O)C(=O)N[C@@H](CCCCN)C(=O)N[C@@H](CCC(N)=O)C(=O)N[C@@H](C)C(=O)N[C@@H](C)C(=O)NC(C)(C)C(=O)N[C@@H](CCC(=O)O)C(=O)N[C@@H](Cc1ccccc1)C(=O)N[C@H](C(=O)N[C@@H](CC(N)=O)C(=O)N[C@@H](Cc1c[nH]c2ccccc12)C(=O)N[C@@H](CC(C)C)C(=O)N[C@@H](CC(C)C)C(=O)N[C@@H](C)C(=O)NCC(=O)NCC(=O)N1CCC[C@H]1C(=O)N[C@@H](CO)C(=O)N[C@@H](CO)C(=O)NCC(=O)N[C@@H](C)C(=O)N1CCC[C@H]1C(=O)N1CCC[C@H]1C(=O)N1CCC[C@H]1C(=O)N[C@@H](CO)C(=O)N[C@@H](CCCCN)C(N)=O)C(C)C` [Compound 180], for which the Emax at GLP-1R [1] (Table 3) is 94%; on GLP-1R [1] (Table 3A), 94%; on GIP-R (Table 3), 84%; at GIP-R (Table 3A), 84%. Also, the EC50 at GLP-1R [1] (setting [4]) is 10 to 100 nM; on GLP-1R [1] (setting [5]) it was 10 to 100 nM; on GIP-R (setting [6]), 10 to 100 nM; at GIP-R (setting [7]) it was 10 to 100 nM; on GLP-1R [2] (setting [8]), above 1000 nM.

As for `CC[C@H](C)[C@H](NC(=O)[C@H](CO)NC(=O)[C@H](Cc1ccc(O)cc1)NC(=O)[C@H](CC(=O)O)NC(=O)[C@H](CO)NC(=O)[C@@H](NC(=O)[C@H](Cc1ccccc1)NC(=O)[C@@H](NC(=O)CNC(=O)[C@H](CCC(=O)O)NC(=O)CCCCC(=O)NCCN1C(=O)c2ccccc2C1=O)[C@@H](C)O)[C@@H](C)O)C(=O)N[C@@H](Cc1ccc(O)cc1)C(=O)N[C@@H](CC(C)C)C(=O)N[C@@H](CC(=O)O)C(=O)N[C@@H](CCCCN)C(=O)N[C@@H](CCC(N)=O)C(=O)N[C@@H](C)C(=O)N[C@@H](C)C(=O)NC(C)(C)C(=O)N[C@@H](CCC(=O)O)C(=O)N[C@@H](Cc1ccccc1)C(=O)N[C@H](C(=O)N[C@@H](CC(N)=O)C(=O)N[C@@H](Cc1c[nH]c2ccccc12)C(=O)N[C@@H](CC(C)C)C(=O)N[C@@H](CC(C)C)C(=O)N[C@@H](C)C(=O)NCC(=O)NCC(=O)N1CCC[C@H]1C(=O)N[C@@H](CO)C(=O)N[C@@H](CO)C(=O)NCC(=O)N[C@@H](C)C(=O)N1CCC[C@H]1C(=O)N1CCC[C@H]1C(=O)N1CCC[C@H]1C(=O)N[C@@H](CO)C(=O)N[C@@H](CCCCN)C(N)=O)C(C)C` [Compound 181], the EC50 on GLP-1R [1] (EC50 GLP-1R/nM, Table 3) is 10 to 100 nM; on GLP-1R [1] (EC50 GLP-1R/nM, Table 3A) it was 10 to 100 nM; on GIP-R (EC50 GIP-R/nM, Table 3), 1 to 10 nM; at GIP-R (EC50 GIP-R/nM, Table 3A) it was 1 to 10 nM; on GLP-1R [2], above 1000 nM. For the same molecule, the Emax on GLP-1R [1] (Table 3) came to 103%; on GLP-1R [1] (Table 3A) it was 103%; on GIP-R (Table 3) it was 102%; at GIP-R (Table 3A) it was 102%.

With `CC[C@H](C)[C@H](NC(=O)[C@H](CO)NC(=O)[C@H](Cc1ccc(O)cc1)NC(=O)[C@H](CC(=O)O)NC(=O)[C@H](CO)NC(=O)[C@@H](NC(=O)[C@H](Cc1ccccc1)NC(=O)[C@@H](NC(=O)CNC(=O)[C@H](CCC(=O)O)NC(=O)[C@H]1CC[C@@H](C(=O)NCCN2C(=O)CSC2=O)CC1)[C@@H](C)O)[C@@H](C)O)C(=O)N[C@@H](Cc1ccc(O)cc1)C(=O)N[C@@H](CC(C)C)C(=O)N[C@@H](CC(=O)O)C(=O)N[C@@H](CCCCN)C(=O)N[C@@H](CCC(N)=O)C(=O)N[C@@H](C)C(=O)N[C@@H](C)C(=O)NC(C)(C)C(=O)N[C@@H](CCC(=O)O)C(=O)N[C@@H](Cc1ccccc1)C(=O)N[C@H](C(=O)N[C@@H](CC(N)=O)C(=O)N[C@@H](Cc1c[nH]c2ccccc12)C(=O)N[C@@H](CC(C)C)C(=O)N[C@@H](CC(C)C)C(=O)N[C@@H](C)C(=O)NCC(=O)NCC(=O)N1CCC[C@H]1C(=O)N[C@@H](CO)C(=O)N[C@@H](CO)C(=O)NCC(=O)N[C@@H](C)C(=O)N1CCC[C@H]1C(=O)N1CCC[C@H]1C(=O)N1CCC[C@H]1C(=O)N[C@@H](CO)C(=O)N[C@@H](CCCCN)C(N)=O)C(C)C` [Compound 182], the Emax on GLP-1R [1] (Table 3) and at GLP-1R [1] (Table 3A) was 96% throughout. The EC50 at GLP-1R [1] (setting [4]) is 0.1 to 1 nM; at GLP-1R [1] (setting [5]), 0.1 to 1 nM; at GIP-R (setting [6]) it was 100 to 1000 nM; at GIP-R (setting [7]), 100 to 1000 nM; at GLP-1R [2] (setting [8]) it was above 1000 nM. In addition, the Emax at 1 µM at GIP-R (setting [3]) stood at 12%; at GIP-R (read-out: (Emax) GIP-R at 1 μM, Table 3A), 12%.

For `CC[C@H](C)[C@H](NC(=O)[C@H](CO)NC(=O)[C@H](Cc1ccc(O)cc1)NC(=O)[C@H](CC(=O)O)NC(=O)[C@H](CO)NC(=O)[C@@H](NC(=O)[C@H](Cc1ccccc1)NC(=O)[C@@H](NC(=O)CNC(=O)[C@H](CCC(=O)O)NC(=O)[C@H]1CC[C@H](C(=O)NCCN2C(=O)CSC2=O)CC1)[C@@H](C)O)[C@@H](C)O)C(=O)N[C@@H](Cc1ccc(O)cc1)C(=O)N[C@@H](CC(C)C)C(=O)N[C@@H](CC(=O)O)C(=O)N[C@@H](CCCCN)C(=O)N[C@@H](CCC(N)=O)C(=O)N[C@@H](C)C(=O)N[C@@H](C)C(=O)NC(C)(C)C(=O)N[C@@H](CCC(=O)O)C(=O)N[C@@H](Cc1ccccc1)C(=O)N[C@H](C(=O)N[C@@H](CC(N)=O)C(=O)N[C@@H](Cc1c[nH]c2ccccc12)C(=O)N[C@@H](CC(C)C)C(=O)N[C@@H](CC(C)C)C(=O)N[C@@H](C)C(=O)NCC(=O)NCC(=O)N1CCC[C@H]1C(=O)N[C@@H](CO)C(=O)N[C@@H](CO)C(=O)NCC(=O)N[C@@H](C)C(=O)N1CCC[C@H]1C(=O)N1CCC[C@H]1C(=O)N1CCC[C@H]1C(=O)N[C@@H](CO)C(=O)N[C@@H](CCCCN)C(N)=O)C(C)C` [Compound 183], the Emax at GLP-1R [1] (Table 3) and at GLP-1R [1] (Table 3A) was 95% throughout. For the same molecule, the EC50 on GLP-1R [1] (setting [4]) is 10 to 100 nM; at GLP-1R [1] (setting [5]), 10 to 100 nM; on GIP-R (setting [6]), above 1000 nM; at GIP-R (setting [7]), above 1000 nM; at GLP-1R [2] (setting [8]) it was above 1000 nM. Besides, at GIP-R (setting [3]), the Emax at 1 µM came out at 1.4%.

Source of the values: patent publication US20260176320A1, “MODULATORS OF G-PROTEIN COUPLED RECEPTORS” (priority 2018, published 2026).
